From patent US11458138B2 (Novartis AG, priority 2017, dated 2022)

Tests used:
[1] = tested on: YAP nuclear translocation in HaCaT cells; assay: YAP Translocation Assay (HaCaT Cells); assay type: cell-based, human; conditions: Homo sapiens, 24 hours
How it was run: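 HaCaT cells (20,000/well) in DMEM + 10% FBS were plated overnight at 37° C, then exposed to compound for 24 h at 37° C. Cells were fixed with PFA, permeabilized with 0.1% Triton/1.5% BSA and imaged by high-content imaging.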

[2] = tested on: Phospho-YAP (Ser127) in JHH-5 cells; assay: pYAP HTRF Assay (JHH-5 cells); assay type: cell-based; conditions: 2 hours
Description: Briefly, JHH-5 cells are suspended at 0.48×10^6 cells/ml in William's E medium without phenol-red (Thermo Fisher Scientific Gibco catalog number A1217601) supplemented with 10% (v/v) heat-inactivated fetal bovine serum (Thermo Fisher Scientific Gibco catalog number 16140071) and penicillin-streptomycin at 100 U/ml each (Thermo Fisher Scientific Gibco catalog number 15140122). Cells are dispensed into 384well clear bottom culture plates (50 ul/well, at 24000 cells per well, Greiner catalog number 781091), and incubated for 24 hours in a cell culture incubator at 37° C. Test compounds are transferred into culture plates containing JHH-5 cells using an Echo550 (Labcyte) acoustic dispenser (50 nl/well), followed by incubation for 2 hours at 37° C. Lysis buffer (part of CisBio kit catalog number 64YAPPEI) is added to the assay plates as a four-fold concentrate (corresponding to 16 ul/well) and incubated for 30 minutes at room temperature with agitation. Lysate is transferred from culture plates into white low-volume 384well assay plates (12 ul/well, Greiner catalog number 784075), followed by the addition of 3 ul/well of detection antibodies (part of CisBio kit catalog number 64YAPPEI: 1:40 dilution of each pYAP d2 antibody and pYAP cryptate antibody stocks). The plates are sealed and incubated overnight (18 hours) at room temperature protected from light. Plates are read on an EnVision plate reader (Perkin Elmer) at emission wavelengths of 665 nm and 620 nm. The HTRF signal ratio x per well is calculated as [x=Signal(665 nm)/Signal(620 nm)×10000] as specified in the manufacturer's protocol.

[3] = tested on: Phospho-YAP (SER127) in HaCaT cells; assay: pYAP HTRF Assay (HaCaT Cells); assay type: cell-based, human; conditions: Homo sapiens, 2 hours
How it was run: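 Phospho-YAP (Ser127) was measured by HTRF (665 nm/620 nm ratio) in HaCaT cells. Cells were grown 48 hours at 37° C at 5500 cells/well, exposed to compound for 2 hours, and incubated with detection reagents for 20 hrs at room temperature.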

LATS1 = LATS1 (Homo sapiens (Human), UniProt O95835); assay: LATS1 biochemical assay (Table 1A, Compound Examples 1-290; method in the earlier part)
Sequence of LATS1 (O95835 whole entry, looked up): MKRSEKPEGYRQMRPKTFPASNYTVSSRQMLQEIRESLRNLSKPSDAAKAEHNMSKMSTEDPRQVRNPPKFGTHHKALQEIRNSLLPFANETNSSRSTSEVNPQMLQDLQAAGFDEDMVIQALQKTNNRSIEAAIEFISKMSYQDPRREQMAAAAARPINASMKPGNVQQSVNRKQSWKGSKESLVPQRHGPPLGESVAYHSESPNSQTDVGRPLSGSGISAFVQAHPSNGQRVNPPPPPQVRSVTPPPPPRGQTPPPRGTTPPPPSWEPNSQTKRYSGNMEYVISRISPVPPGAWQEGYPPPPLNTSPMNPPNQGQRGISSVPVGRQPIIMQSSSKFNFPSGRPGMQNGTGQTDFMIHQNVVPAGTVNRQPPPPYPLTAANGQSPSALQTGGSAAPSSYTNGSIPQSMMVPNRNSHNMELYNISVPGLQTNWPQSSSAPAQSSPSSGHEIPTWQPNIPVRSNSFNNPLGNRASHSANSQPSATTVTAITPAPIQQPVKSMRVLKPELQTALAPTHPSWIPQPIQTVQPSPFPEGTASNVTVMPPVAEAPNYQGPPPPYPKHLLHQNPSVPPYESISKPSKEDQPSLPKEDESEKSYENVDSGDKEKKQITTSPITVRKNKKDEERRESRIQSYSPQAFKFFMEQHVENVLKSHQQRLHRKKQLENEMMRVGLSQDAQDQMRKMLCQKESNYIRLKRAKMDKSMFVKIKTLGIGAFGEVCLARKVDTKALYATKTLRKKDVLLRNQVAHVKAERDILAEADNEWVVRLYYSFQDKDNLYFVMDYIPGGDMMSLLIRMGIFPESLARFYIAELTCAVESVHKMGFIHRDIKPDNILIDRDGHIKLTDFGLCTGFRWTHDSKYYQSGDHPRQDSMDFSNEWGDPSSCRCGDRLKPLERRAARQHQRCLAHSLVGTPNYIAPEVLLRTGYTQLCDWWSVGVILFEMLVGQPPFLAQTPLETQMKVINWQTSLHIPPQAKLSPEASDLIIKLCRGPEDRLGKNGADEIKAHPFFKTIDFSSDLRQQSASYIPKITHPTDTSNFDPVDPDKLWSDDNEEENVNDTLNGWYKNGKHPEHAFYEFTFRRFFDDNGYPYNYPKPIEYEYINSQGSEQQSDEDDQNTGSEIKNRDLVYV
Sequence of LATS1 (Q7L9L4 whole entry partner, looked up): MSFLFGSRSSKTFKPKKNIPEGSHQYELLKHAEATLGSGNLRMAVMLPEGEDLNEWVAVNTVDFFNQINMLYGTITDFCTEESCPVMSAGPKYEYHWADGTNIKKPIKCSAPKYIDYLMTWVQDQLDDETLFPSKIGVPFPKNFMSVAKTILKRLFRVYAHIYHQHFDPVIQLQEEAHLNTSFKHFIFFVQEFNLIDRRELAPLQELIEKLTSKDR

## Cc1n[nH]cc1-c1nc(NC(C)(C)CC(C)(C)O)c2ccncc2n1 [Example 140, 2,4-dimethyl-4-{[2-(3-methyl-1H-pyrazol-4-yl)pyrido[3,4-d]pyrimidin-4-yl]amino}pentan-2-ol]
[1]
  EC50: 2260 nM
[2]
  IC50: 2200 nM
[3]
  IC50: 1240 nM
LATS1
  IC50: 4 nM

## C[C@]1(Nc2nc(-c3ccncc3)nc3cnccc23)C[C@@H](O)C1 [Example 70, (1r,3s)-3-methyl-3-{[2-(pyridin-4-yl)pyrido[3,4-d]pyrimidin-4-yl]amino}cyclobutan-1-ol]
[1]
  EC50: 1680 nM
[2]
  IC50: 4000 nM
[3]
  IC50: 422 nM
LATS1
  IC50: 3 nM

## CCCNc1nc(-c2c[nH]c3ncccc23)nc2cnccc12 [Example 155, N-propyl-2-{1H-pyrrolo[2,3-b]pyridin-3-yl}pyrido[3,4-d]pyrimidin-4-amine]
[1]
  EC50: 1050 nM
[2]
  IC50: 2600 nM
[3]
  IC50: 1580 nM
LATS1
  IC50: 1 nM

## CC(C)(O)C(C)(Nc1nc(-c2ccncc2)nc2cnccc12)C(F)(F)F (stereo not shown) [Example 50, 4,4,4-trifluoro-2,3-dimethyl-3-{[2-(pyridin-4-yl)pyrido[3,4-d]pyrimidin-4-yl]amino}butan-2-ol]
[1]
  EC50: 3810 nM
[2]
  IC50: > 10000 nM
[3]
  IC50: 17000 nM
LATS1
  IC50: 5 nM

## OCCNc1nc(-c2ccncc2)nc2cnccc12 [Example 85, 2-{[2-(pyridin-4-yl)pyrido[3,4-d]pyrimidin-4-yl]amino}ethan-1-ol]
[1]
  EC50: 9810 nM
[2]
  IC50: > 10000 nM
[3]
  IC50: 31000 nM
LATS1
  IC50: 25 nM

## CC(C)(C)Nc1nc(-c2c[nH]nc2C(F)(F)F)nc2cnccc12 [Example 115, N-tert-butyl-2-[3-(trifluoromethyl)-1H-pyrazol-4-yl]pyrido[3,4-d]pyrimidin-4-amine]
[1]
  EC50: 1660 nM
[2]
  IC50: 3400 nM
[3]
  IC50: 1050 nM
LATS1
  IC50: 2 nM

## C[C@H](N(C)c1nc(-c2ccncc2F)nc2cnccc12)C(F)(F)F [Example 136, 2-(3-fluoropyridin-4-yl)-N-methyl-N-[(2S)-1,1,1-trifluoropropan-2-yl]pyrido[3,4-d]pyrimidin-4-amine]
[1]
  EC50: 2960 nM
[2]
  IC50: 1300 nM
[3]
  IC50: 1140 nM
LATS1
  IC50: 2 nM

## CC1(Nc2nc(-c3ccncc3)nc3c(Cl)nccc23)CC1 [Example 198, 8-chloro-N-(1-methylcyclopropyl)-2-(pyridin-4-yl)pyrido[3,4-d]pyrimidin-4-amine]
[1]
  EC50: 3230 nM
[2]
  IC50: 1300 nM
[3]
  IC50: 2180 nM
LATS1
  IC50: 1 nM

## CC(C)(C)Nc1cc(-c2ccncn2)nc2cnccc12 [Example 270, N-tert-butyl-2-(pyrimidin-4-yl)-1,7-naphthyridin-4-amine]
[1]
  EC50: 873 nM
[2]
  IC50: 800 nM
[3]
  IC50: 423 nM
LATS1
  IC50: 2 nM

## FC(F)(F)C1(Nc2nc(-c3ccncc3)nc3cnccc23)CC1 [Example 64, 2-(pyridin-4-yl)-N-[1-(trifluoromethyl)cyclopropyl]pyrido[3,4-d]pyrimidin-4-amine]
[1]
  EC50: 479 nM
[2]
  IC50: 2100 nM
[3]
  IC50: 63 nM
LATS1
  IC50: 1 nM

## CN(C)CCC(C)(C)Nc1cc(-c2ccncc2)nc2cnccc12 [Example 265, dimethyl(3-methyl-3-{[2-(pyridin-4-yl)-1,7-naphthyridin-4-yl]amino}butyl)amine]
[1]
  EC50: > 20000 nM
[2]
  IC50: > 10000 nM
[3]
  IC50: 22300 nM
LATS1
  IC50: 8 nM

## CC(C)(C)Nc1nc(-c2ccncc2)nc2cncc(Cl)c12 [Example 251, N-(tert-butyl)-5-chloro-2-(pyridin-4-yl)pyrido[3,4-d]pyrimidin-4-amine]
[1]
  EC50: 10900 nM
[2]
  IC50: 1500 nM
[3]
  IC50: 1960 nM
LATS1
  IC50: 4 nM

## CC(C)(C)Nc1cc(-c2ccncc2F)nc2cnccc12 [Example 280, N-tert-butyl-2-(3-fluoropyridin-4-yl)-1,7-naphthyridin-4-amine]
[1]
  EC50: 2730 nM
[2]
  IC50: 3800 nM
[3]
  IC50: 476 nM
LATS1
  IC50: 3 nM
